# Reference: ChEMBL document CHEMBL1201862, “PubChem BioAssay data set” (2004)
# Active and inactive are the calls of the source.
# Assays:
# [1] = inhibitors of intracellular T. cruzi replication, confirmation, NIH3T3 host cells, beta-gal luminescence (AID 2044); type: functional, cell-based;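 note: intracellular parasites grown in NIH/3T3 mouse fibroblasts as host cells; luminescent beta-galactosidase reporter signal from transgenic T. cruzi replicating inside host cells; inhibitors lower the luminescence signal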
# [2] = cytotoxicity toward NIH3T3 fibroblasts, dose response, counter-screen, cell-based, ATP luminescence, mouse fibroblasts (AID 2010); type: functional;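 note: cells exposed to compound for about 90 hours before reading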
# HeLa = test: HeLa cell cytotoxicity, dose response, cytotoxicity control, 24 h, cherry-picked samples (AID 504726); type: functional, cell-based; conditions: Homo sapiens;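 note: potency for cytotoxicity as loss of luminescence signal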
# [3] = molecular target: Acyl-homoserine lactone acylase PvdQ (Pseudomonas aeruginosa (strain LESB58), UniProt Q9I194); test: P. aeruginosa PvdQ acylase inhibitors, dose response, biochemical, fluorescence, plate reader and imaging, cherry-picks (AID 493231)
# [4] = inhibitors of firefly luciferase expression or activity, dose response, H4 neuroglioma cells, luminescence (AID 1990); type: functional, cell-based
# [5] = luciferase reporter signal reduction – luminescence, H4-C neuroglioblastoma cells, dose response (AID 2458); type: functional, cell-based;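 note: H4 neuroglioblastoma cells stably carrying a luciferase reporter gene fusion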
# BJ [6] = test: cytotoxicity toward BJ-TERT fibroblasts, dose response, cell-based, RAS-independent, luminescence (AID 1933); type: functional; conditions: Homo sapiens
# cells = type: functional, cell-based
# [7] = Luminescence Cell-Based Dose Response HTS to Identify Inhibitors of 5'UTR Stem-Loop Driven Prion Protein mRNA Translation in H4 Neuroglioblastoma Cells. [Related pubchem assays: 1827 (Project Summary), 1813 (Primary HTS)]; type: functional
# [8] = inhibitors of SNCA 5'UTR-driven reporter translation, confirmation, H4 neuroglioma cells, luminescence (AID 1988); type: functional, cell-based
# BJ [9] = test: cells; type: functional, cell-based; conditions: Homo sapiens
# BJ [10] = test: cytotoxicity toward BJ-TERT-LT-ST fibroblasts, dose response, cell-based, RAS-independent, luminescence (AID 1935); type: functional; conditions: Homo sapiens;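 note: BJ fibroblasts immortalized with TERT plus LT and ST oncogenes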
# [11] = cytotoxicity toward DRD oncogenic fibroblasts, dose response, cell-based, non-viral oncogenic, luminescence (AID 1934); type: functional; conditions: Homo sapiens
# [12] = inhibitors of SNCA 5'UTR-driven translation, confirmation, luminescence, H4 neuroglioblastoma cells, dose confirmation (AID 2454); type: functional, cell-based;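 note: H4 neuroglioblastoma cells carrying an alpha-synuclein 5'UTR luciferase reporter; potency for inhibition of the luciferase signal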
# BJ [13] = test: cytotoxicity toward Ras-transformed BJeLR fibroblasts, dose response, cell-based, alamar blue fluorescence, cherrypicked samples (AID 2631); type: functional; conditions: Homo sapiens;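 note: confirmatory dose-response assay in RAS-dependent BJ fibroblasts engineered with TERT, LT and ST, with cytotoxicity read by fluorescence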
# [14] = molecular target: Peroxisome proliferator-activated receptor gamma/Nuclear receptor coactivator 1 (Homo sapiens, UniProt P37231); test: (§1) TR-FRET dose response biochemical High Throughput Screening assay for agonists of the steroid receptor coactivator 1 (SRC-1) recruitment by the peroxisome proliferator-activated receptor gamma (PPAR gamma): non-selective agonists. [Related pubchem assays (depositor defined):AID1300, AID1808, AID504735, AID631]; type: protein assay
# [15] = molecular target: Peroxisome proliferator-activated receptor gamma/Nuclear receptor coactivator 3 (Homo sapiens, UniProt P37231); test: as §1, with “3 (SRC-3)” for “1 (SRC-1)”, “assays: 1301 (Confirmation screen.), 1048 (Primary screen.)]” for “assays (depositor defined):AID1300, AID1808, AID504735, AID631]”; type: functional
# [16] = molecular target: Peroxisome proliferator-activated receptor gamma/Nuclear receptor coactivator 2 (Homo sapiens, UniProt P37231); test: TR-FRET dose response biochemical High Throughput Screening assay for agonists of the steroid receptor coactivator 2 (SRC-2) recruitment by the peroxisome proliferator-activated receptor gamma (PPAR gamma): non-selective agonists. [Related pubchem assays: 1297, 1032 ]; type: functional
# [17] = A549 cell cytotoxicity, dose response, cytotoxicity control, plate reader, cherry-pick, antagonist series (AID 743412); type: functional, cell-based
# [18] = LGR2 antagonists, dose response, cell-based, HEK293, CRE-luciferase reporter, cherry pick, set 2 (AID 743343); type: functional;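 note: transfected cells were stimulated with diluted bursicon conditioned medium after compound addition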
# [19] = MC4R antagonists, dose response, counter-screen for LGR2 antagonist project, cell-based, plate reader, cherry pick (AID 743444); type: functional;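 note: transfected HEK 293 cells stimulated with alpha-MSH peptide; potency of inhibitors of the alpha-MSH evoked signal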
# [20] = molecular target: T1, Eukaryotic translation initiation factor 2-alpha kinase 3 (Homo sapiens, UniProt Q9NZJ5); test: Dose response cell-based high-throughput screening assay to measure PERK inhibition. [Related pubchem assays: 1416 ]; type: functional
# T1 sequence (Q9NZJ5 whole entry): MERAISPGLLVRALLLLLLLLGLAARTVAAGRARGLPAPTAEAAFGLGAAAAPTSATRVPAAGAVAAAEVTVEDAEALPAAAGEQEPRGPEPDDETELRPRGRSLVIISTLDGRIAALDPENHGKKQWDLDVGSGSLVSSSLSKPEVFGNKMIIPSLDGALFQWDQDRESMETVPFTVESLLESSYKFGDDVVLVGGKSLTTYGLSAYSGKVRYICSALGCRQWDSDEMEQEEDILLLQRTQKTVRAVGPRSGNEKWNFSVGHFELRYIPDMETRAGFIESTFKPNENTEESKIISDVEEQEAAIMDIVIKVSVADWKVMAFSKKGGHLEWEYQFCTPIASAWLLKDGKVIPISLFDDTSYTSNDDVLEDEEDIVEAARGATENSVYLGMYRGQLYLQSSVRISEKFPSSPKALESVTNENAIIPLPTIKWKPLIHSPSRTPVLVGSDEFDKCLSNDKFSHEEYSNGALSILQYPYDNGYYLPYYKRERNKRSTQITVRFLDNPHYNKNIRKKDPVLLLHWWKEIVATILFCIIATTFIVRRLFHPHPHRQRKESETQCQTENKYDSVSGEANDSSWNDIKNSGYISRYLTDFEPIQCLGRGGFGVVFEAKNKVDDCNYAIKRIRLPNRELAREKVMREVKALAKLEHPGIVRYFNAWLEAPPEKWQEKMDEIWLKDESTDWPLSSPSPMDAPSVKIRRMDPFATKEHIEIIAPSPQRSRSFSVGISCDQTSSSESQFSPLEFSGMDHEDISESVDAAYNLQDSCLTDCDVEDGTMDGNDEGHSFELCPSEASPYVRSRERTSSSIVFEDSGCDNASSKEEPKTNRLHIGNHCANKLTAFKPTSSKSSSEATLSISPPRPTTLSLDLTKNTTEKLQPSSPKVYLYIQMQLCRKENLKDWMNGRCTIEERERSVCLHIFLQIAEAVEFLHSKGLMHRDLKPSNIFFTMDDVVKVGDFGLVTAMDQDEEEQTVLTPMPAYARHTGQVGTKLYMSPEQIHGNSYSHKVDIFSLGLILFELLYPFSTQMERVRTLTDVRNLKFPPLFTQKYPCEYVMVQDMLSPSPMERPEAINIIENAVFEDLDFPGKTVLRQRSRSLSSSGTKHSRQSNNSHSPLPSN
# [21] = molecular target: T1, Eukaryotic translation initiation factor 2-alpha kinase 3; test: Counterscreen assay for PERK inhibitors: Dose response cell-based high throughput screening assay to measure inhibition of PERK at 6 hours. [Related pubchem assays: 1522, 1416 ]; type: functional
# [22] = molecular target: Melanin-concentrating hormone receptor 1 (Homo sapiens, UniProt Q99705); test: Late-stage fluorescence-based counterscreen for antagonists of the G-protein coupled receptor 7 (GPR7): cell-based dose response assay to identify antagonists of the melanin-concentrating hormone receptor 1 (MCHR1). [Related pubchem assays (depositor defined):AID1861, AID1880, AID1952, AID2148, AID2251, AID2257, AID485339]; type: functional;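 note: stimulated with 30 nM MCH peptide agonist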
# [23] = A Cell Based Secondary Assay To Explore Cytotoxicity of Compounds that Sensitize Mycobacterium Tuberculosis to Beta-Lactam Antibiotics.; type: functional
# Aspartyl aminopeptidase = Aspartyl aminopeptidase (Plasmodium falciparum 3D7, UniProt Q8I2J3); test: Counterscreen for inhibitors of M1 and M17 aminopeptidases: QFRET-based biochemical high throughput dose response assay for inhibitors of the Plasmodium falciparum M18 Aspartyl Aminopeptidase (PFM18AAP). [Related PubChem assays: 1619 (Screening assay (M17LAP inhibitors).), 1445 (Screening assay (M1AAP inhibitors).)]
# Aminopeptidase N = molecular target: T2, Aminopeptidase N (Plasmodium falciparum FcB1/Columbia, UniProt O96935); test: P. falciparum M1AAP inhibitors, biochemical, fluorogenic H-Leu-NHMec substrate, 1536-well (AID 1445); set-up: species or system Plasmodium falciparum 3D7, 3D7
# T2 sequence (O96935 whole entry): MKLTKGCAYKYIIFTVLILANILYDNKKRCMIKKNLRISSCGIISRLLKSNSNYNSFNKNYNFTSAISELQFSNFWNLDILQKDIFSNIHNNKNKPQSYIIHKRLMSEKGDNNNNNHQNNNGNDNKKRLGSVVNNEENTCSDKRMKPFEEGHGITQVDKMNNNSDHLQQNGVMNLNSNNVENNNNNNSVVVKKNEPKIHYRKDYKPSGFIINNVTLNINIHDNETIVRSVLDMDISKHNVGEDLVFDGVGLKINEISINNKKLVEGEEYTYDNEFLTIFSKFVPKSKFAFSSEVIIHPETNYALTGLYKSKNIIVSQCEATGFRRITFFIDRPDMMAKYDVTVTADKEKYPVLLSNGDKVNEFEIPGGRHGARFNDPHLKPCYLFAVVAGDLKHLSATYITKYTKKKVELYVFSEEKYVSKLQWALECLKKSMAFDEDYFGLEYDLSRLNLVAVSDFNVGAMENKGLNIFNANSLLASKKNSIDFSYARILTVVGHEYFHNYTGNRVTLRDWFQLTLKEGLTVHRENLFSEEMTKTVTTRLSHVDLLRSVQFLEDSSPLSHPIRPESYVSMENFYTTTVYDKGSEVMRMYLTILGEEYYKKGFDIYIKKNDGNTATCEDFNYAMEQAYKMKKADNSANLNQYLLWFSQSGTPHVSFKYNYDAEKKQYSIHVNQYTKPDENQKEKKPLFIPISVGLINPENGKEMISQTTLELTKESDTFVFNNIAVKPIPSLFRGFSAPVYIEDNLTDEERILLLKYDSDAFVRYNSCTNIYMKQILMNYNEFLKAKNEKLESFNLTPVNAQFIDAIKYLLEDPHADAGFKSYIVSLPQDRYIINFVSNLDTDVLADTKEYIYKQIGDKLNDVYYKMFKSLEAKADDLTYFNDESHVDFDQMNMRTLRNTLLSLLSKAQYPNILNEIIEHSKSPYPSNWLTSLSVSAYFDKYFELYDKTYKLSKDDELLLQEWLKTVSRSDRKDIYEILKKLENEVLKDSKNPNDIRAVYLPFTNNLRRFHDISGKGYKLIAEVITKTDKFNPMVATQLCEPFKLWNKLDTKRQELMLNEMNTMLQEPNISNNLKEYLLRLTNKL
# Procathepsin L = Procathepsin L (Homo sapiens, UniProt P07711); test: cathepsin L inhibitors, dose response, counter-screen for M1/M17 aminopeptidase inhibitor project, biochemical, QFRET, 1536-well (AID 2214)
# Leucine aminopeptidase = molecular target: T3, Leucine aminopeptidase (Plasmodium falciparum 3D7, UniProt Q8IL11); test: P. falciparum M17LAP inhibitors, primary screen, biochemical, fluorogenic H-Leu-NHMec substrate, 1536-well (AID 1619); type: functional
# T3 sequence (Q8IL11 whole entry): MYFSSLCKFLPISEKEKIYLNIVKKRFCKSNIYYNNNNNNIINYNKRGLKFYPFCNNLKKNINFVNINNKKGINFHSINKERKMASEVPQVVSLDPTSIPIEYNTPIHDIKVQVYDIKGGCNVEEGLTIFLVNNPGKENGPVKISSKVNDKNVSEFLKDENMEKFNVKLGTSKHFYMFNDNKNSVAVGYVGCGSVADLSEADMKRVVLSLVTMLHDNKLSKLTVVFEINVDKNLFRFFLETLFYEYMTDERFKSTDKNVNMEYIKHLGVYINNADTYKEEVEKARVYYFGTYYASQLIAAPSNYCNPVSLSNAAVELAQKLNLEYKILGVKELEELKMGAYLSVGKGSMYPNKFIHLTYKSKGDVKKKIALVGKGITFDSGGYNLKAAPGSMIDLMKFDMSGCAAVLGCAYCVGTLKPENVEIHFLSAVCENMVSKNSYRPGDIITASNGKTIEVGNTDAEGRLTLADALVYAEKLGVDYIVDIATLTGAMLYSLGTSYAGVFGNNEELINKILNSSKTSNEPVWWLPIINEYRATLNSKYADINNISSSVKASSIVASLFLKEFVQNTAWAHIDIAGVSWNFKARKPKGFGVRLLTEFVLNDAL
# [24] = A High Throughput Confirmatory Assay used to Identify Novel Compounds that Inhibit Mycobacterium Tuberculosis in the absence of Glycerol.; type: functional
# Procathepsin L, sequence (P07711 whole entry): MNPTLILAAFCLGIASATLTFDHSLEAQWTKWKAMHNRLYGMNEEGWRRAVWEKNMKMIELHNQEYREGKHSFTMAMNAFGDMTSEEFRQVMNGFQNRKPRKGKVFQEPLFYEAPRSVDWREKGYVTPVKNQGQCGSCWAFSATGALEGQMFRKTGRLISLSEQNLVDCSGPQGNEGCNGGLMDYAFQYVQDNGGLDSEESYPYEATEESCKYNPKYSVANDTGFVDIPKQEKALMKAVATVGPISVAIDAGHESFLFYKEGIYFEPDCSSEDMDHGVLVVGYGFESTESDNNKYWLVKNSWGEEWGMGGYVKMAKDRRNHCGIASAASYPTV
# Aspartyl aminopeptidase, sequence (Q8I2J3 whole entry): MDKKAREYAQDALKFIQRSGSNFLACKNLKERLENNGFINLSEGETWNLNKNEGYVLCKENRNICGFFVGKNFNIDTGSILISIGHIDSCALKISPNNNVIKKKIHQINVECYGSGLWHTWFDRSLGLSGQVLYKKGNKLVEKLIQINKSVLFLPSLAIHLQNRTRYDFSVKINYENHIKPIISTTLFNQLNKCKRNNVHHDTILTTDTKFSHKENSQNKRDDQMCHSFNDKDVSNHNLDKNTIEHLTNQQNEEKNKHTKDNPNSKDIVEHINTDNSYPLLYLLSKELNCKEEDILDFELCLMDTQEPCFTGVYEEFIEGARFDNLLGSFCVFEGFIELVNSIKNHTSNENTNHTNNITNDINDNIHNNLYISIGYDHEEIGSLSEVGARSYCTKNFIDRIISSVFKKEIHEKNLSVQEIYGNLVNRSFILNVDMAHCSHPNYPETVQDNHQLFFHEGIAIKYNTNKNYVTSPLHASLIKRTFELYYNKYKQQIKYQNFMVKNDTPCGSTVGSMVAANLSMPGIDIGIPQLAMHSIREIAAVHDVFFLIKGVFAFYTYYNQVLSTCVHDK
# Acyl-homoserine lactone acylase PvdQ, sequence (Q9I194 24-193 limits assumed): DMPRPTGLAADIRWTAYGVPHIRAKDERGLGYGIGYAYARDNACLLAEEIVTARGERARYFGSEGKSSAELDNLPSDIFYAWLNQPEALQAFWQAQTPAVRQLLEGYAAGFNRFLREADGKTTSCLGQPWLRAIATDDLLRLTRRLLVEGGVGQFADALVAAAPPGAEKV
# Acyl-homoserine lactone acylase PvdQ, sequence (Q9I194 217-762 limits assumed): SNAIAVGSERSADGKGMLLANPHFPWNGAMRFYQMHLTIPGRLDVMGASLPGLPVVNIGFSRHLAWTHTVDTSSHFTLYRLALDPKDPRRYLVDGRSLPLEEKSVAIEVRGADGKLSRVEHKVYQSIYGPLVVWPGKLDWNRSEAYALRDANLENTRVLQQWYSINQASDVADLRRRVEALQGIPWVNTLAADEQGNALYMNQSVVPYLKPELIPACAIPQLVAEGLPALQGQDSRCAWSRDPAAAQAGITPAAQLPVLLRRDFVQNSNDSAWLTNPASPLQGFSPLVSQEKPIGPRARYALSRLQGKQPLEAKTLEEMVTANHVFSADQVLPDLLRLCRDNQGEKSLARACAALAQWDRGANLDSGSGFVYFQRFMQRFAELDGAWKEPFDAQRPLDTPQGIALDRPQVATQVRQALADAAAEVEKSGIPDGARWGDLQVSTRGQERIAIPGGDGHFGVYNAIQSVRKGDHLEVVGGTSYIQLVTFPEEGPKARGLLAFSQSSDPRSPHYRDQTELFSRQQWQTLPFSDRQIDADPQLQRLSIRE
# Melanin-concentrating hormone receptor 1, sequence (Q99705 whole entry): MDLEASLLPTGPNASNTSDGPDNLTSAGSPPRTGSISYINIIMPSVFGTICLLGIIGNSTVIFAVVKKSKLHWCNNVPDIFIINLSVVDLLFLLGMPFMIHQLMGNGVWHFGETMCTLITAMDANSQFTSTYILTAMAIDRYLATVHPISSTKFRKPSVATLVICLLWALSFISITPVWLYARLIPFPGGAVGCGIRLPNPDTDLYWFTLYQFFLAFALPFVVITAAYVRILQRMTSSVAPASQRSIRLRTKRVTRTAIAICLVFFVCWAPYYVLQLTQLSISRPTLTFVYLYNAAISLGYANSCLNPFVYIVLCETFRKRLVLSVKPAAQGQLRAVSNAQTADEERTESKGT
# Peroxisome proliferator-activated receptor gamma/Nuclear receptor coactivator 1, sequence (P37231 whole entry): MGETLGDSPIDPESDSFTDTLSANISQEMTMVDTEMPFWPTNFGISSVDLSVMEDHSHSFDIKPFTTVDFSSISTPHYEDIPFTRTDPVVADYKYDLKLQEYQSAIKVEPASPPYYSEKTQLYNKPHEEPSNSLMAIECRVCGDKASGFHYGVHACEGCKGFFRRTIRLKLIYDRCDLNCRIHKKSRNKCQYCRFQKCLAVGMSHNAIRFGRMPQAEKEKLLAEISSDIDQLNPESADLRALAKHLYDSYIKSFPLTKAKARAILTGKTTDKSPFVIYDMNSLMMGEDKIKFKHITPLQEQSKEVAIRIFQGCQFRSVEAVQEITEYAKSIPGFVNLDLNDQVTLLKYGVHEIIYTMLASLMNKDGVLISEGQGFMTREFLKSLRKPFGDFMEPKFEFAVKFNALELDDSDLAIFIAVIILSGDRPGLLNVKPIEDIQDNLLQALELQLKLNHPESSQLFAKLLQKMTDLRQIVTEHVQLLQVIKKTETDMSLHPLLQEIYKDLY
# Peroxisome proliferator-activated receptor gamma/Nuclear receptor coactivator 1, sequence (Q15788 whole entry, further chain): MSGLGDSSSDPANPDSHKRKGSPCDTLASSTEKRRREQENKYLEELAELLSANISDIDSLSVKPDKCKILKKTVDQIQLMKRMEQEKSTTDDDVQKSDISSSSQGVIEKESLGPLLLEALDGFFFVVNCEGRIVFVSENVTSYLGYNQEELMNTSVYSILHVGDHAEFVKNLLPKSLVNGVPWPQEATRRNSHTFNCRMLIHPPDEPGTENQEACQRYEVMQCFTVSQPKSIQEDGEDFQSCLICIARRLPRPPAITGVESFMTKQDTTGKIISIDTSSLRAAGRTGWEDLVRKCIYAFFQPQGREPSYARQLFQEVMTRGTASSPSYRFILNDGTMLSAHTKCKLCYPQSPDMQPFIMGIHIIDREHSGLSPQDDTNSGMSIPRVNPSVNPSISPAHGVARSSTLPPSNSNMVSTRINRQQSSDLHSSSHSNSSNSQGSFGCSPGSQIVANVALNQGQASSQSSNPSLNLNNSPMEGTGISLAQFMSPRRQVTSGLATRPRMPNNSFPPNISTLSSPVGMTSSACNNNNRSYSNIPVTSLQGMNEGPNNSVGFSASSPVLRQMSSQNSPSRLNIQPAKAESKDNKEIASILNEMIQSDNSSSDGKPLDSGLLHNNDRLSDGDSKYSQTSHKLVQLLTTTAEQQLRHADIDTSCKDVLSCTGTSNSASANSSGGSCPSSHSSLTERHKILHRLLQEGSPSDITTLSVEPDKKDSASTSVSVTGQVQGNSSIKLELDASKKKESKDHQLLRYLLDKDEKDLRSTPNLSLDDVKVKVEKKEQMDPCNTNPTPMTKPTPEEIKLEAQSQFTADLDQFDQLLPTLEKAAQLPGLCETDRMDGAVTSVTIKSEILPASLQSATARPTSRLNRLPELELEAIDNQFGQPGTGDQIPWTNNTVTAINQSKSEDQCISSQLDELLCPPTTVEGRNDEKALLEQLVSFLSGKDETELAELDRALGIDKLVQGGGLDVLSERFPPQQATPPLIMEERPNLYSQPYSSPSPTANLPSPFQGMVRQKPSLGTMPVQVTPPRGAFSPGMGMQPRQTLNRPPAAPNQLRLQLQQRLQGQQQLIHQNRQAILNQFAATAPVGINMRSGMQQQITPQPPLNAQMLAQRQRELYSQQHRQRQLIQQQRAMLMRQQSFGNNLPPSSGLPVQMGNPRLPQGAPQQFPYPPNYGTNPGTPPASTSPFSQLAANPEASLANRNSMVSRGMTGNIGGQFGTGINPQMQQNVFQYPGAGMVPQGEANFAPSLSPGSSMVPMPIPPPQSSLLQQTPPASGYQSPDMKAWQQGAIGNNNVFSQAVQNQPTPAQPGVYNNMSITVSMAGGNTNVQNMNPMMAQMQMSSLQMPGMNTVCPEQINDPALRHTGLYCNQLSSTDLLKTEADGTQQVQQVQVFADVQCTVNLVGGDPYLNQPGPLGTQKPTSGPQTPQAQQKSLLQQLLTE
structure (smiles),measurement,setting,value
Cc1ccc(-c2nnn(CC(=O)NC3CCN(Cc4ccccc4)CC3)n2)cc1,EC50,[1],0.141 µM (active)
same,EC50,[2],> 60 µM (not active)
same,AC50,HeLa,276 µM (active)
CCOC(=O)c1cnc(-c2ccccc2)nc1N,AC50,[3],11.6 µM (active)
O=C(N/N=C/c1cccs1)c1cc(-c2ccncc2)nc2ccccc12,EC50,[4],4.61 µM (active)
same,EC50,[5],> 12 µM (inconclusive)
same,EC50,BJ [6],0.602 µM (active)
same,EC50,cells,2.19 µM (active)
same,EC50,[7],0.294 µM (active)
same,EC50,[8],< 0.1 µM (active)
same,EC50,BJ [9],0.712 µM (active)
same,EC50,BJ [10],0.671 µM (active)
same,EC50,[11],0.463 µM (active)
same,EC50,[12],> 12 µM (inconclusive)
same,EC50,BJ [13],0.24 µM (active)
N#CCn1c(C2CCCCC2)nc2ccccc2c1=O,AC50,[3],13.1 µM (active)
O=C(c1ccccc1)N1CCSc2sccc2C1=O,EC50,[4],7.87 µM (active)
same,EC50,[5],0.896 µM (active)
same,EC50,[14],18.9 µM (inactive)
same,EC50,cells,7.25 µM (active)
same,EC50,[7],< 0.1 µM (active)
same,EC50,[15],> 79.4 µM (not active)
same,EC50,[16],15.8 µM (not active)
same,EC50,[12],1.08 µM (active)
same,AC50,[17],> 52 µM (inactive)
same,AC50,[18],4 µM (active)
same,AC50,[19],3.77 µM (active)
O=C1c2ccncc2C(=O)N1c1cccc(Cl)c1,EC50,[20],> 55.7 µM (not active)
same,EC50,[21],> 55.7 µM (not active)
COc1ccc(Oc2c(Cl)cnn(-c3ccc(C4CC4)cc3)c2=O)cc1,IC50,[22],6.8 µM (active)
O=C1C=C2C=C[C@@H]3CC2(O1)[C@H]1CCCCN31,CC50,[23],39.4 µM (active)
CCCS(=O)(=O)N1CCC(C(=O)NCc2ccc3c(c2)OCO3)CC1,IC50,Aspartyl aminopeptidase,> 73.5 µM (not active)
same,IC50,Aminopeptidase N,13.1 µM (active)
same,IC50,Procathepsin L,> 59.6 µM (not active)
O=c1c2cc(Cl)ccc2[nH]c(=S)n1Cc1cccs1,CC50,[23],> 40 µM (active)
O=C(CSc1nc2c(c(=O)[nH]1)CN(Cc1ccc(F)cc1)CC2)Nc1ccc(F)cc1,IC50,Leucine aminopeptidase,7.8 µM (active)
same,IC50,Aspartyl aminopeptidase,> 73.5 µM (not active)
same,IC50,Procathepsin L,> 59.6 µM (not active)
O=C(NNC(=O)C1CCCN(S(=O)(=O)c2ccc3ccccc3c2)C1)C1CC1 (stereo unspecified),EC50,[20],23.2 µM (not active)
same,EC50,[21],> 55.7 µM (not active)
Cc1nn(-c2ccccc2)c(Cl)c1C(=O)Nc1nnc(C2CCCCC2)s1,IC50,[24],> 50 µM (active)
